Data set [1] can be described thus: Stability to mechanical grinding/milling (ball-milling, XRPD). The data set is classed as physicochemical. The conditions noted are these: XRPD analysis of the milled material. An excerpt: (§1) The crystal forms of T-62 are preferably substantially stable to grinding. Stability to grinding may be assessed by measurement of an appropriate physical property before and after grinding. Where the physical property remains substantially unchanged, substantial stability to grinding is indicated. Suitable physico-chemical properties for measurement include a melting point, a X-ray diffraction pattern, an infra red absorption spectrum and a Raman spectrum, particularly the X-ray diffraction pattern. For example, Form I crystal form of T-62 is stable to mechanical milling and cryogrinding as indicated by XRPD analyses of the milled and ground material, respectively.
Stability to mechanical grinding/milling may be tested, e.g., by employing a small stainless steel cylinder. The cylinder is charged with a weighted amount of a crystal form of T-62 and a stainless steel ball is added, the cylinder is capped and the unit is placed on a Retsch Mixer Mill (Type MM 200) for a total of 3 min at a frequency of 30/s (ball-milling).

Data set [2] is described as follows: Moisture sorption/desorption analysis. The data set is classed as physicochemical. How it is done: Moisture sorption/desorption analyses may be performed on a VTI SGA-100 Vapor Sorption Analyzer, or a similar instrument. Sorption and desorption data are collected, e.g., over a range of 5 to 95% relative humidity (RH) at 10% RH intervals under a nitrogen purge. Samples need not to be dried prior to analysis. Equilibrium criteria used for analysis are, e.g., less than 0.01% weight change in 5 min, with a maximum equilibration time of 3 h if the weight criterion is not met. NaCl and PVP may be used as calibration standards.

Data set [3] is described as follows: Approximate solubilities of Form I crystals of T-62 (solvent added until clear solution). The data set is classed as physicochemical. The settings on record: RT. How it is done:
Solubilities for Form I crystals of T-62 may be estimated based on total solvent used to give a clear solution. A test solvent, either reagent or HPLC (high pressure liquid chromatography) grade, is added in measured aliquots, e.g., 200 or 500 μL, to an accurately weighed sample of T-62 (typically 50 to 90 mg). For some samples, sonication is applied between solvent additions to aid dissolution. Generally, solvent is added until a clear solution is obtained. Actual solubilities may be greater than those shown in Table 7 because of the volume of the solvent portions utilized or a slow rate of dissolution.

Data set [4] can be described thus: Stability to cryogrinding (XRPD). The settings on record: XRPD analysis of the ground material. The data set is classed as physicochemical.
From the text: as §1
Stability to cryogrinding may be tested, e.g., by employing a polycarbonate freezer mill tube. The tube is charged with a weighted amount of a crystal form of T-62 and a stainless steel rod is added, the tube is capped and the unit is shaken in a SPEX Certiprep 6750 Freezer Mill for a total of 0.6 min in liquid nitrogen at a rate of 10 Hz.

The nature of data set [5]: Solid-state conversion of crystal forms on heating or humidity. The data set is classed as physicochemical.
For data set [6], the target named is T1, adenosine A1 receptors (Homo sapiens, UniProt P30542).
T1 sequence (P30542 1-326): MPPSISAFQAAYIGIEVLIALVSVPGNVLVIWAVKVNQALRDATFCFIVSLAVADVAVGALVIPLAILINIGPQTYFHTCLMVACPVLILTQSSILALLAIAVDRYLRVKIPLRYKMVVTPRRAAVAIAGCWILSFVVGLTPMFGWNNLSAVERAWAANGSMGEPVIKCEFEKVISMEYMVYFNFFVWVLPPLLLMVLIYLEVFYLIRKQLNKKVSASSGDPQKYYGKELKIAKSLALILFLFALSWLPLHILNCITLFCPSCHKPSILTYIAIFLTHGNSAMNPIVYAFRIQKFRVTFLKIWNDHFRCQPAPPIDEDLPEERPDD
The settings on record: U.S. Pat. No. 6,248,774 and No. 6,489,356, cited from earlier work.

This is an account of results in patent publication US20090023799A1, “CRYSTALS OF (2-AMINO-4,5,6,7-TETRAHYDROBENZO[b]THIEN-3-YL)(4-CHLOROPHENYL)METHANONE” (priority 2007, published 2009).

≈ marks a conversion by molar mass, not a printed value. Where two headings read alike, the source gives them in different places.

One may read the solubility as how much of the substance goes into solution per volume. For `Nc1sc2c(c1C(=O)c1ccc(Cl)cc1)CCCC2` [Form I, (2-amino-4,5,6,7-tetrahydrobenzo[b]thiophen-3-yl)(4-chlorophenyl)methanone], the “Stability to mechanical milling” value in data set [1] was “stable”. For the same compound, the “Crystal form after moisture sorption/desorption analysis” value in data set [2] is “remains the same”. In data set [2], the “Weight gain or loss in moisture sorption/desorption analysis” value is “no significant weight gain or loss”. In data set [2] (moisture sorption/desorption analysis), the Hygroscopicity result is “non-hygroscopic”. The solubility entry in data set [3] (water) was “practically insoluble”; in data set [3] (aqueous with cosolvent or surfactant or cyclodextrin, thermodynamic from solid, ACN:H2O - 1:1, read-out: Solubility), 8.4 mg/mL (≈ 28.8 mM); in data set [3] (organic solvent or mixture, thermodynamic from solid, ACN, read-out: Solubility) it was 11.1 mg/mL (≈ 38 mM); in data set [3] (organic solvent or mixture, thermodynamic from solid, CHCl3, read-out: Solubility), 175 mg/mL (≈ 598 mM); in data set [3] (organic solvent or mixture, thermodynamic from solid, EtOAc, read-out: Solubility), 67.8 mg/mL (≈ 232 mM); in data set [3] (organic solvent or mixture, thermodynamic from solid, EtOH:H2O - 95:5, read-out: Solubility), 12.8 mg/mL (≈ 43.9 mM). The solubility stood at 16.6 mg/mL (≈ 56.9 mM) in data set [3] (organic solvent or mixture, thermodynamic from solid, EtOH, read-out: Solubility); 13.1 mg/mL (≈ 44.9 mM) in data set [3] (organic solvent or mixture, thermodynamic from solid, IPA, read-out: Solubility); 132 mg/mL (≈ 453 mM) in data set [3] (organic solvent or mixture, thermodynamic from solid, MEK, read-out: Solubility); 8.7 mg/mL (≈ 29.8 mM) in data set [3] (organic solvent or mixture, thermodynamic from solid, MeOH:H2O - 95:5, read-out: Solubility); 19.8 mg/mL (≈ 67.9 mM) in data set [3] (organic solvent or mixture, thermodynamic from solid, MeOH, read-out: Solubility); 129 mg/mL (≈ 441 mM) in data set [3] (organic solvent or mixture, thermodynamic from solid, N,N-dimethylformamide (DMF), read-out: Solubility). The solubility amounted to 338 mg/mL (≈ 1160 mM) in data set [3] (organic solvent or mixture, thermodynamic from solid, THF, read-out: Solubility); 59.8 mg/mL (≈ 205 mM) in data set [3] (organic solvent or mixture, thermodynamic from solid, acetone, read-out: Solubility); 9.8 mg/mL (≈ 33.6 mM) in data set [3] (organic solvent or mixture, thermodynamic from solid, cyclohexane, read-out: Solubility); 21.4 mg/mL (≈ 73.3 mM) in data set [3] (organic solvent or mixture, thermodynamic from solid, di-n-butyl ether, read-out: Solubility); 85.3 mg/mL (≈ 292 mM) in data set [3] (organic solvent or mixture, thermodynamic from solid, dichloromethane, read-out: Solubility); 5.9 mg/mL (≈ 20.2 mM) in data set [3] (organic solvent or mixture, thermodynamic from solid, diisopropyl ether, read-out: Solubility). Moreover, the solubility is 183 mg/mL (≈ 626 mM) in data set [3] (organic solvent or mixture, thermodynamic from solid, dimethylsulfoxide (DMSO), read-out: Solubility); 74.9 mg/mL (≈ 257 mM) in data set [3] (organic solvent or mixture, thermodynamic from solid, dioxane, read-out: Solubility); 5.6 mg/mL (≈ 19.2 mM) in data set [3] (organic solvent or mixture, thermodynamic from solid, hexanes, read-out: Solubility); 12 mg/mL (≈ 41.1 mM) in data set [3] (organic solvent or mixture, thermodynamic from solid, nitromethane, read-out: Solubility); 19.7 mg/mL (≈ 67.5 mM) in data set [3] (organic solvent or mixture, thermodynamic from solid, octanol, read-out: Solubility); 45.7 mg/mL (≈ 157 mM) in data set [3] (organic solvent or mixture, thermodynamic from solid, toluene, read-out: Solubility). Also, the Stability to cryogrinding result in data set [4] is recorded as “stable”.
In the case of `Nc1sc2c(c1C(=O)c1ccc(Cl)cc1)CCCC2` [Form II, (2-amino-4,5,6,7-tetrahydrobenzo[b]thiophen-3-yl)(4-chlorophenyl)methanone], the “Weight gain in moisture sorption/desorption analysis” value in data set [2] (at 95% RH) is 0.1%.
As for `Nc1sc2c(c1C(=O)c1ccc(Cl)cc1)CCCC2` [Form III, (2-amino-4,5,6,7-tetrahydrobenzo[b]thiophen-3-yl)(4-chlorophenyl)methanone], in data set [5] (heating to about 104° C. under argon purge), the “Crystal form conversion on heating” value was “converted to the Form I crystal form”. Moreover, in data set [5] (high humidity, solvent is lost), the “Crystal form conversion under high humidity” value is recorded as “converts to Form I crystal form”. In addition, in data set [5] (upon heating), the “Crystal form conversion upon heating” value is given as “converts to Form I crystals”.
As for `Nc1sc2c(c1C(=O)c1ccc(Cl)cc1)CCCC2` [Form IV, (2-amino-4,5,6,7-tetrahydrobenzo[b]thiophen-3-yl)(4-chlorophenyl)methanone], the “Crystal form conversion on heating” value in data set [5] (heating for 2 min at 75° C. in a sealed capillary) is reported as “converted to the Form IV crystal form”.
As to `Nc1sc2c(c1C(=O)c1ccc(Cl)cc1)CCCC2` [Form T-62, (2-amino-4,5,6,7-tetrahydrobenzo[b]thiophen-3-yl)(4-chlorophenyl)methanone], in data set [6], the “Adverse side effects associated with administration of adenosine” value was “devoid of the adverse side effects”. In data set [6] (orally effective), the “Effect on inflammatory and neuropathic pain” value was “reduce inflammatory and neuropathic pain”.
